Experimental data: patent publication EP3114111B1, “BICYCLIC PYRROLE DERIVATIVES USEFUL AS AGONISTS OF GPR120” (Janssen Pharmaceutica NV, priority 2014, dated 2015)

Legend:
C57bl6 Mouse = assay: GPR120 C57bl6 Mouse IPGTT; type: in vivo, C57bl/6J Mice
Method: Male, C57bl/6J Mice were ordered in at 8 weeks of age from Jackson Labs. Individual mice weighed anywhere in the range of 25-30 grams on study day. The mice were fasted, with removal of food occurring at 7am on the morning of the study. Animals were moved into the room at 10:00am, to give them time to acclimate. Glucose (insulin syringes) was drawn up either the night before or the morning of the study. Glucose was dosed (IP) at 1.5g/kg at 7.5ml/kg (20% glucose straight TEKNOVA, 250ml sterile bottle w/ catalogue number G0525). Test compounds were kept spinning and were only drawn into the syringes prior to study commencement. Animals were bled via tail snip to determine basal glucose levels prior to dosing of treatments. An Ascensia BREEZE Blood Glucose Monitoring System by Bayer (using unique 10-test disks) was used for determining glucose levels. The bleeds started at approximately 12:45pm and dosing started, at 1-minute intervals, immediately after. All groups were dosed 30 minutes prior to glucose administration at a dose volume of 10ml/kg (the dose volume was calculated separately for each individual animal). Thirty minutes after the first dose animals were bled again for a second baseline, or T=0, and immediately dosed with glucose via an i.p. injection. The exact dose volume for glucose was also calculated separately for each individual animal. Glucose measurements were taken at -30min prior to compound dose, at t=0 (immediately prior to glucose dose), and at 15, 30, 45, 60, 90min post glucose dose.
Glucose values were entered into an Excel sheet and graphed in GraphPad Prism. The following were calculated from Prism: Change from -30 to 0 BSLN Glucose, Raw Glucose AUC -30 to 90min, Delta Glucose AUC -30 to 90min, Raw Glucose AUC 0 to 90min, Delta Glucose AUC 0 to 90min.

DIO Mice = assay: GPR120 DIO Mice OGTT Screening; type: in vivo, C57BI6 mice; conditions: for DIO Lowering Glucose AUC: DIO mice OGTT; for Lowering Glucose AUC: DIO Dose Response
Method: 18-22 week old, C57BI6 mice on a high fat diet (60% HFD) for 12-16 weeks (ave. body weight ∼ 37-41g) were fasted for 6hr, with removal of food occurring at 7 am on the morning of the study. The animals were sorted into treatment groups the day before the study by body weight. Animals outside the bounds of ∼30-50g were left out of the study. The animals had been handled and shammed a total of 5-8 days (1-3 days immediately prior to the study). Glucose (in 1ml syringes) was drawn up the morning of the study. Test compounds were kept spinning and were only drawn into 1ml syringes prior to study commencement. Animals were bled via tail snip to determine basal glucose levels prior to dosing of treatments. An Ascensia BREEZE Blood Glucose Monitoring System by Bayer was used for determining glucose levels.
Animals were moved into the testing room at ∼9-11am, to yield them time to acclimate. The bleeds and dosing started at approximately 1pm in 30-second intervals per animal. All groups were dosed 30 minutes prior to glucose administration at a dose volume of 10ml/kg (the dose volume was calculated separately for each individual animal). Test compounds were administered at two or more of the following dosages: 0.1 mg/kg, 0.3 mg/kg, 1 mg/kg, 3 mg/kg, 10 mg/kg and 30 mg/kg.
Thirty minutes after the first dose (with test compound) animals were bled again for a second baseline, or T=0, and immediately dosed with glucose (20% solution; TEKNOVA, 250ml sterile bottle w/ catalogue number G0525) via a PO injection. The exact dose volume for glucose was also calculated separately for each individual animal.
Blood glucose was measured at 15, 30, 45, 60, and 90 minutes post-glucose administration via the snipped tail. If an animal reached a value of "HI", the upper limit of the glucometer (600mg/dl) was substituted as the blood glucose value and the study was analyzed as normal with no exclusions. If 50% or more of any treatment group reaches a "HI" value at least once, the study was considered invalid and repeated. Glucose values were typed into an EXCEL spreadsheet where they were used to calculate glucose AUC and delta AUC post-compound and post-glucose. The glucose excursion curves and the different versions of the AUC's were graphed in GraphPad Prism 5.
Note: All statistics completed in this study were completed using the statistical software package GraphPad Prism 5. Standard procedures for analyzing data sets from screening GPR120 compounds in DIO mouse OGTT's were as listed here below. In addition to the statistics that were run using GraphPad Prism 5, Microsoft Excel was used to calculate the percent changes in AUC from vehicle groups as detailed below.
Change from -30 to 0 BSLN Glucose, Raw Glucose AUC -30 to 90min, Delta Glucose AUC -30 to 90min, Raw Glucose AUC 0 to 90min, Delta Glucose AUC 0 to 90min were analyzed using Column Statistics Analysis, with mean values used to calculate % change from the vehicle mean group, as well as mean, SEM and / or % change from vehicle, where appropriate; and using One-Way ANOVA w/ a Tukey Post-Test (Comparing All Pairs of Columns) with each treatment group examined to see if it was statistically significant compared to vehicle (*= P<0.05, **= P<0.01, ***= P<0.001).

| SMILES | GPR120 C57bl6 Mouse IPGTT Results (C57bl6 Mouse; 10.0 mg/kg) | DIO Lowering Glucose AUC (DIO Mice; 3 mg/kg) [%] | DIO Lowering Glucose AUC (DIO Mice; 10 mg/kg) [%] | also measured |
| --- | --- | --- | --- | --- |
| Cc1c(CCC(=O)O)ccc(OCc2cccn2-c2ccc(Cl)cc2)c1C [Compound 1, 3-(4-{[1-(4-Chlorophenyl)-1H-pyrrol-2-yl]methoxy}-2,3-dimethylphenyl)propanoic acid] | – | – | – | GPR120 C57bl6 Mouse IPGTT Results (C57bl6 Mouse; 30.0 mg/kg): not different from vehicle |
| COc1ccc(-n2ccc(C(F)(F)F)c2COc2ccc(CCCO)c(F)c2F)cc1 [Compound 27, 3-(2,3-Difluoro-4-{[1-(4-methoxyphenyl)-3-(trifluoromethyl)-1H-pyrrol-2-yl]methoxy}phenyl)propan-1-ol] | -16 | – | – | – |
| OCCCc1cc(F)c(OCc2c(C(F)(F)F)ccn2-c2ccc(Br)cc2)c(F)c1 [Compound 30, 3-(4-{[1-(4-Bromophenyl)-3-(trifluoromethyl)-1H-pyrrol-2-yl]methoxy}-3,5-difluorophenyl)propan-1-ol] | -53 | – | – | C57bl6 Mouse IPGTT dose response (C57bl6 Mouse; 1 mg/kg): 1%; C57bl6 Mouse IPGTT dose response (C57bl6 Mouse; 3 mg/kg): -14%; C57bl6 Mouse IPGTT dose response (C57bl6 Mouse; 10 mg/kg): -48% |
| COc1ccc(-n2ccc(C(F)(F)F)c2COc2c(F)cc(CCCO)cc2F)cc1 [Compound 31, 3-(3,5-Difluoro-4-{[1-(4-methoxyphenyl)-3-(trifluoromethyl)-1H-pyrrol-2-yl]methoxy}phenyl)propan-1-ol] | -43 | – | – | C57bl6 Mouse IPGTT dose response (C57bl6 Mouse; 1 mg/kg): 2%; C57bl6 Mouse IPGTT dose response (C57bl6 Mouse; 3 mg/kg): -39%; C57bl6 Mouse IPGTT dose response (C57bl6 Mouse; 10 mg/kg): -44% |
| CCc1ccc(-n2ccc(C(F)(F)F)c2COc2c(F)cc(CCCO)cc2F)cc1 [Compound 33, 3-(4-{[1-(4-Ethylphenyl)-3-(trifluoromethyl)-1H-pyrrol-2-yl]methoxy}-3,5-difluorophenyl)propan-1-ol] | -26 | – | – | – |
| CCc1ccc(-n2ccc(C(F)(F)F)c2COc2ccc(CCC(=O)O)c(F)c2F)cc1 [Compound 34, 3-(4-{[1-(4-Ethylphenyl)-3-(trifluoromethyl)-1H-pyrrol-2-yl]methoxy}-2,3-difluorophenyl)propanoic acid] | – | -27 | -50 | – |
| Cc1ccc(-n2ccc(C(F)(F)F)c2COc2c(F)cc(CCCO)cc2F)cc1 [Compound 37, 3-(3,5-Difluoro-4-{[1-(4-methylphenyl)-3-(trifluoromethyl)-1H-pyrrol-2-yl]methoxy}phenyl)propan-1-ol] | -30 | – | – | – |
| Cc1ccc(-n2ccc(C(F)(F)F)c2COc2c(F)cc(CCC(=O)O)cc2F)cc1 [Compound 39, 3-(3,5-Difluoro-4-{[1-(4-methylphenyl)-3-(trifluoromethyl)-1H-pyrrol-2-yl]methoxy}phenyl)propanoic acid] | – | -59 | -68 | – |
| O=C(O)CCc1cc(F)c(OCc2c(C(F)(F)F)ccn2-c2ccc(Cl)cc2)c(F)c1 [Compound 70, 3-(4-{[1-(4-Chlorophenyl)-3-(trifluoromethyl)-1H-pyrrol-2-yl]methoxy}-3,5-difluorophenyl)propanoic acid] | – | -79 | -82 | Lowering Glucose AUC (DIO Mice; 0.1 mg/kg): 9%; Lowering Glucose AUC (DIO Mice; 0.3 mg/kg): -8%; Lowering Glucose AUC (DIO Mice; 1.0 mg/kg): -54%; Lowering Glucose AUC (DIO Mice; 3.0 mg/kg): -73% |
